These results are taken from patent US20140206681A1, “BTK INHIBITORS” (priority 2013, published 2014).

In general, IC50 refers to the concentration that gives 50% inhibition.

For test [1], the target named is T1, BTK enzyme (recombinant full-length BTK, hBTK) (Homo sapiens, UniProt Q06187).
T1 construct: recombinant protein from baculovirus-transfected Sf9 cells: full-length BTK, 6HIS-tag cleaved; 6HIS (cleaved yes); made in house; host or cells: baculovirus-transfected Sf9 cells
The experiment in a line: BTK enzyme activity assay, LANCE TR-FRET. The test is classed as biochemical. Particulars: 50 pM hBTK, 2 μM biotin-A5-peptide, 25 μM ATP; 60 min compound & enzyme incubation; read-out: IC50 BTK activity value. Background: TR-FRET usually uses a lanthanide donor and a delayed reading to cut background.

The next test deals with HeLa cells. Kind of test: [3H]Adenosine uptake functional cellular assay. Particulars: Homo sapiens, HeLa, accumulation of [3H]adenosine into HeLa cells; compound range 10 μM to […]; read-out: Adenosine uptake inhibition IC50. Format: cell-based. The method, boiled down: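 Inhibition of adenosine uptake was measured in HeLa cells (ATCC CCL-2) by following accumulation of tritiated adenosine. Cells were kept overnight at 37° C. with 5% (v/v) CO2, then switched to 40 μL HBSS plus 5% (v/v) FBS. 20 μL of 500 nM [3H]adenosine was added, and uptake was counted on a Topcount NXT reader.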

SMILES strings stand for the structures.

T1 sequence (Q06187 whole entry): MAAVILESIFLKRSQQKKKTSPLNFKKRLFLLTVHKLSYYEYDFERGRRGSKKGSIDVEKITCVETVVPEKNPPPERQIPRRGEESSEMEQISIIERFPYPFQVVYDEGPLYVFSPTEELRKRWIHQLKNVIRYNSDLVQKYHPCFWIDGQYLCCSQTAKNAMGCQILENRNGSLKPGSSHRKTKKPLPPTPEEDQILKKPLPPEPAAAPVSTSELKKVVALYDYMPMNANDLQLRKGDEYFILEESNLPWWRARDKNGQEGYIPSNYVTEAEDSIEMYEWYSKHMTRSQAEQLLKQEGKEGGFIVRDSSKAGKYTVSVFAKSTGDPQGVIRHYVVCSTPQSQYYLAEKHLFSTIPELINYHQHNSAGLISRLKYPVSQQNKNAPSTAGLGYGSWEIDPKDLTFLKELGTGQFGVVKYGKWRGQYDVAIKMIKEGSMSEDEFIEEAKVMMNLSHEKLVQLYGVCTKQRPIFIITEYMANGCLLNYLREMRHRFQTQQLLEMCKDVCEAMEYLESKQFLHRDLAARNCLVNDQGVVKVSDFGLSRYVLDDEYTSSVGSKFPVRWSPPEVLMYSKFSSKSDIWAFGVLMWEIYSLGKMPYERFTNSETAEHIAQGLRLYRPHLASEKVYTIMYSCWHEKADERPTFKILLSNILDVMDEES

Turning to `Nc1nccn2c([C@@H]3CC[C@H]4CN(C(=O)c5ccncc5)CC(=O)N4C3)nc(-c3ccc(C(=O)Nc4cc(C(F)(F)F)ccn4)cc3)c12` [Example 102, 4-{8-amino-3-[(7R,9aS)-4-oxo-2-(pyridin-4-ylcarbonyl)octahydro-2H-pyrido[1,2-a]pyrazin-7-yl]imidazo[1,5-a]pyrazin-1-yl}-N-[4-(trifluoromethyl)pyridin-2-yl]benzamide], the IC50 in test [1] was determined as 0.21 nM; in the test on HeLa cells it was 471 nM.

Regarding `COC(=O)c1ccnc(NC(=O)c2ccc(-c3nc([C@@H]4CC[C@H]5CCC(=O)N5C4)n4ccnc(N)c34)cc2)c1` [Example 103, methyl 2-{[(4-{8-amino-3-[(6R,8aS)-3-oxooctahydroindolizin-6-yl]imidazo[1,5-a]pyrazin-1-yl}phenyl)carbonyl]amino}pyridine-4-carboxylate], the values for the IC50 (in test [1]; in the test with HeLa cells) were 0.4 nM and 69.3 nM, respectively.

`Nc1nccn2c([C@@H]3CC[C@H]4CCC(=O)N4C3)nc(-c3ccc(C(=O)Nc4cc(C(F)(F)F)cnn4)cc3)c12` [Example 104, 4-{8-amino-3-[(6R,8aS)-3-oxooctahydroindolizin-6-yl]imidazo[1,5-a]pyrazin-1-yl}-N-[5-(trifluoromethyl)pyridazin-3-yl]benzamide]: the values for the IC50 (in test [1]; in the test with HeLa cells) were 1.2 nM and 303 nM, respectively.

Consider `Nc1nccn2c([C@@H]3CC[C@H]4CCC(=O)N4C3)nc(-c3ccc(C(=O)Nc4cc5ccccc5cn4)cc3)c12` [Example 106, 4-{8-amino-3-[(6R,8aS)-3-oxooctahydroindolizin-6-yl]imidazo[1,5-a]pyrazin-1-yl}-N-isoquinolin-3-ylbenzamide], for which the IC50 in test [1] is 0.19 nM; in the test on HeLa cells, 193 nM.

Consider `Nc1nccn2c([C@H]3CN4C(=O)CC[C@@H]4CO3)nc(-c3ccc(C(=O)Nc4cc(C(F)(F)F)ccn4)cc3)c12` [Example 107, 4-{8-amino-3-[(3R,8aR)-6-oxohexahydro-1H-pyrrolo[2,1-c][1,4]oxazin-3-yl]imidazo[1,5-a]pyrazin-1-yl}-N-[4-(trifluoromethyl)pyridin-2-yl]benzamide], for which the IC50 in test [1] was found to be 0.26 nM; in the test with HeLa cells it was 206 nM.

Regarding `Nc1nccn2c([C@@H]3CC[C@H]4CN(CC(=O)O)CC(=O)N4C3)nc(-c3ccc(C(=O)Nc4cc(C(F)(F)F)ccn4)cc3)c12` [Example 108, {(7R,9aS)-7-[8-amino-1-(4-{[4-(trifluoromethyl)pyridin-2-yl]carbamoyl}phenyl)imidazo[1,5-a]pyrazin-3-yl]-4-oxooctahydro-2H-pyrido[1,2-a]pyrazin-2-yl}acetic acid], the half-maximal inhibitory concentration (IC50) in test [1] came to 0.22 nM; in the test with HeLa cells, 2880 nM.

As for `C=C[C@@H]1OC(=O)N2C[C@H](c3nc(-c4ccc(C(=O)Nc5cc(C(F)(F)F)ccn5)cc4)c4c(N)nccn34)CC[C@@H]12` [Example 109, 4-{8-amino-3-[(1S,6R,8aS)-1-ethenyl-3-oxohexahydro[1,3]oxazolo[3,4-a]pyridin-6-yl]imidazo[1,5-a]pyrazin-1-yl}-N-[4-(trifluoromethyl)pyridin-2-yl]benzamide], the IC50 in test [1] amounted to 6.3 nM; in the test on HeLa cells, 116 nM.

With `C=C[C@H]1OC(=O)N2C[C@H](c3nc(-c4ccc(C(=O)Nc5cc(C(F)(F)F)ccn5)cc4)c4c(N)nccn34)CC[C@@H]12` [Example 110, 4-{8-amino-3-[(1R,6R,8aS)-1-ethenyl-3-oxohexahydro[1,3]oxazolo[3,4-a]pyridin-6-yl]imidazo[1,5-a]pyrazin-1-yl}-N-[4-(trifluoromethyl)pyridin-2-yl]benzamide], the IC50 in test [1] worked out at 16.8 nM; with HeLa cells, 100 nM.

On to `CN1CC[C@H]2CC[C@@H](c3nc(-c4ccc(C(=O)Nc5cc(C(F)(F)F)ccn5)cc4)c4c(N)nccn34)CN2C1=O` [Example 111, 4-{8-amino-3-[(4aR,7R)-2-methyl-1-oxooctahydro-1H-pyrido[1,2-c]pyrimidin-7-yl]imidazo[1,5-a]pyrazin-1-yl}-N-[4-(trifluoromethyl)pyridin-2-yl]benzamide], for which the half-maximal inhibitory concentration (IC50) was determined as 5.2 nM in test [1] and 458 nM in the test with HeLa cells.

Regarding `Nc1nccn2c([C@@H]3CC[C@H]4CCC(=O)N4C3)nc(-c3ccc(C(=O)Nc4cc(C(F)(F)F)ccn4)cc3Cl)c12` [Example 112, 4-{8-amino-3-[(6R,8aS)-3-oxooctahydroindolizin-6-yl]imidazo[1,5-a]pyrazin-1-yl}-3-chloro-N-[4-(trifluoromethyl)pyridin-2-yl]benzamide], the values for the IC50 (in test [1]; in the test on HeLa cells) were 0.57 nM and 415 nM, respectively.

Take `CC(F)(F)c1cc(C(=O)Nc2cc(C(F)(F)F)ccn2)ccc1-c1nc([C@@H]2CC[C@H]3CCC(=O)N3C2)n2ccnc(N)c12` [Example 114, 4-{8-amino-3-[(6R,8aS)-3-oxooctahydroindolizin-6-yl]imidazo[1,5-a]pyrazin-1-yl}-3-(1,1-difluoroethyl)-N-[4-(trifluoromethyl)pyridin-2-yl]benzamide]: the 50% inhibitory concentration (IC50) worked out at 831 nM in test [1] and 587 nM in the test on HeLa cells.

In the case of `CCOc1cc(C(=O)Nc2cc(C(F)(F)F)n(C)n2)c(F)cc1-c1nc([C@@H]2CC[C@H]3CCC(=O)N3C2)n2c(Cl)cnc(N)c12` [Example 115, 4-(8-amino-5-chloro-3-((6R,8aS)-3-oxooctahydroindolizin-6-yl)imidazo[1,5-a]pyrazin-1-yl)-5-ethoxy-2-fluoro-N-(1-methyl-5-(trifluoromethyl)-1H-pyrazol-3-yl)benzamide], the results for the IC50 (in test [1]; with HeLa cells) were 0.67 nM and 1690 nM, respectively.

Turning to `N#Cc1cnc(NC(=O)c2ccc(-c3nc([C@@H]4CC[C@H]5CCC(=O)N5C4)n4ccnc(N)c34)cc2)cc1C(F)(F)F` [Example 117, 4-{8-amino-3-[(6R,8aS)-3-oxooctahydroindolizin-6-yl]imidazo[1,5-a]pyrazin-1-yl}-N-[5-cyano-4-(trifluoromethyl)pyridin-2-yl]benzamide], the IC50 in test [1] came out at 2.1 nM; with HeLa cells it was 102 nM.

Turning to `Nc1nccn2c([C@@H]3CC[C@H]4CCC(=O)N4C3)nc(-c3ccc(C(=O)Nc4cc(C(F)(F)F)ccn4)cc3O)c12` [Example 118, 4-{8-amino-3-[(6R,8aS)-3-oxooctahydroindolizin-6-yl]imidazo[1,5-a]pyrazin-1-yl}-3-hydroxy-N-[4-(trifluoromethyl)pyridin-2-yl]benzamide], the values for the 50% inhibitory concentration (IC50) (in test [1]; in the test on HeLa cells) were 0.58 nM and 832 nM, respectively.

Regarding `Nc1nccn2c([C@@H]3CC[C@H]4CCC(=O)N4C3)nc(-c3ccc(C(=O)Nc4cc(C(F)(F)F)ccn4)nc3)c12` [Example 119, 5-{8-amino-3-[(6R,8aS)-3-oxooctahydroindolizin-6-yl]imidazo[1,5-a]pyrazin-1-yl}-N-[4-(trifluoromethyl)pyridin-2-yl]pyridine-2-carboxamide], the values for the half-inhibitory concentration (IC50) (in test [1]; in the test with HeLa cells) were 3.3 nM and 451 nM, respectively.

As to `Cc1cc(C(F)(F)F)cc(NC(=O)c2ccc(-c3nc([C@@H]4CC[C@H]5CCC(=O)N5C4)n4ccnc(N)c34)cc2)n1` [Example 120, 4-{8-amino-3-[(6R,8aS)-3-oxooctahydroindolizin-6-yl]imidazo[1,5-a]pyrazin-1-yl}-N-[6-methyl-4-(trifluoromethyl)pyridin-2-yl]benzamide], the IC50 in test [1] turned out to be 4.8 nM; with HeLa cells, 117 nM.

As to `N#Cc1cc(C(=O)Nc2cc(C(F)(F)F)ccn2)ccc1-c1nc([C@@H]2CC[C@H]3CCC(=O)N3C2)n2ccnc(N)c12` [Example 123, 4-{8-amino-3-[(6R,8aS)-3-oxooctahydroindolizin-6-yl]imidazo[1,5-a]pyrazin-1-yl}-3-cyano-N-[4-(trifluoromethyl)pyridin-2-yl]benzamide], the concentration for half-maximal inhibition (IC50) in test [1] is 6.3 nM; with HeLa cells it was 719 nM.

Regarding `NC(=O)c1cc(C(=O)Nc2cc(C(F)(F)F)ccn2)ccc1-c1nc([C@@H]2CC[C@H]3CCC(=O)N3C2)n2ccnc(N)c12` [Example 124, 4-{8-amino-3-[(6R,8aS)-3-oxooctahydroindolizin-6-yl]imidazo[1,5-a]pyrazin-1-yl}-N~1~-[4-(trifluoromethyl)pyridin-2-yl]benzene-1,3-dicarboxamide], the IC50 in test [1] is 347 nM; in the test on HeLa cells it was not below 10000 nM.

On to `CC(C)c1cc(C(F)(F)F)cc(NC(=O)c2ccc(-c3nc([C@@H]4CC[C@H]5CCC(=O)N5C4)n4ccnc(N)c34)cc2)n1` [Example 125, 4-{8-amino-3-[(6R,8aS)-3-oxooctahydroindolizin-6-yl]imidazo[1,5-a]pyrazin-1-yl}-N-[6-(1-methylethyl)-4-(trifluoromethyl)pyridin-2-yl]benzamide], for which the IC50 in test [1] came out at 278 nM; in the test on HeLa cells, 645 nM.

In the case of `Nc1nccn2c([C@@H]3CC[C@H]4CCC(=O)N4C3)nc(-c3ccc(C(=O)Nc4cc(C(F)(F)F)ccn4)cc3C(=O)O)c12` [Example 127, 2-{8-amino-3-[(6R,8aS)-3-oxooctahydroindolizin-6-yl]imidazo[1,5-a]pyrazin-1-yl}-5-{[4-(trifluoromethyl)pyridin-2-yl]carbamoyl}benzoic acid], the half-inhibitory concentration (IC50) turned out to be 83.5 nM in test [1] and 5160 nM with HeLa cells.

Consider `CCOc1cc(C(=O)Nc2cc(C(F)(F)F)ccn2)ccc1-c1nc([C@@H]2CC[C@H]3CCC(=O)N3C2)n2c(Cl)cnc(N)c12` [Example 128, 4-{8-amino-5-chloro-3-[(6R,8aS)-3-oxooctahydroindolizin-6-yl]imidazo[1,5-a]pyrazin-1-yl}-3-ethoxy-N-[4-(trifluoromethyl)pyridin-2-yl]benzamide], for which the IC50 amounted to 0.27 nM in test [1] and 1160 nM in the test with HeLa cells.

As to `COc1cccc(NC(=O)c2ccc(-c3nc([C@@H]4CC[C@H]5CCC(=O)N5C4)n4ccnc(N)c34)cc2)n1` [Example 129, 4-{8-amino-3-[(6R,8aS)-3-oxooctahydroindolizin-6-yl]imidazo[1,5-a]pyrazin-1-yl}-N-(6-methoxypyridin-2-yl)benzamide], the IC50 is 81.2 nM in test [1] and 39.3 nM in the test on HeLa cells.
